# In patent US20230150974A1 (Foghorn Therapeutics Inc., priority 2020, published 2023):
# Structures can show the parent of a compound that is named as a salt.
# Key:
# [1] = molecular target: T1, HiBiT-BRM (Homo sapiens, UniProt P51531); test: HiBiT-BRM cell-based degradation assay (Nano-Glo HiBiT Lytic Detection); conditions: HeLa cells expressing HiBiT-BRM, 24 h; for DC50: read-out: BRM HiBit Degradation IC50
# T1 construct: expressed in transfected cells
# Method in brief: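 HeLa cells stably expressing HiBiT-tagged BRM were treated for 24 h, then lysed with LgBiT-containing Nano-Glo reagent and luminescence read. % degradation scaled between DMSO (high control) and 2 μM reference BRM/BRG1 degrader (low control).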
# [2] = molecular target: T2, HiBit-BRG1 (Homo sapiens, UniProt P51532); test: HiBit-BRG1 cell-based degradation assay (Nano-Glo HiBiT Lytic Detection); conditions: HeLa cells expressing HiBit-BRG1 and LgBit, 24 h; for DC50: read-out: BRG1 HiBit Degradation IC50; for Dmax: read-out: BRG1 HiBit Degradation Maximum (%)
# T2 construct: expressed in transfected cells
# Method in brief: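 Luminescence from Nano-Glo HiBiT lytic detection, read after 24 h compound exposure, scored degradation in a stable HeLa HiBiT-BRG1/LgBit line seeded at 5000 cells/well. DMSO wells defined 0% and 2 μM known BRM/BRG1 degrader wells defined full degradation.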
# T1 sequence (P51531 whole entry): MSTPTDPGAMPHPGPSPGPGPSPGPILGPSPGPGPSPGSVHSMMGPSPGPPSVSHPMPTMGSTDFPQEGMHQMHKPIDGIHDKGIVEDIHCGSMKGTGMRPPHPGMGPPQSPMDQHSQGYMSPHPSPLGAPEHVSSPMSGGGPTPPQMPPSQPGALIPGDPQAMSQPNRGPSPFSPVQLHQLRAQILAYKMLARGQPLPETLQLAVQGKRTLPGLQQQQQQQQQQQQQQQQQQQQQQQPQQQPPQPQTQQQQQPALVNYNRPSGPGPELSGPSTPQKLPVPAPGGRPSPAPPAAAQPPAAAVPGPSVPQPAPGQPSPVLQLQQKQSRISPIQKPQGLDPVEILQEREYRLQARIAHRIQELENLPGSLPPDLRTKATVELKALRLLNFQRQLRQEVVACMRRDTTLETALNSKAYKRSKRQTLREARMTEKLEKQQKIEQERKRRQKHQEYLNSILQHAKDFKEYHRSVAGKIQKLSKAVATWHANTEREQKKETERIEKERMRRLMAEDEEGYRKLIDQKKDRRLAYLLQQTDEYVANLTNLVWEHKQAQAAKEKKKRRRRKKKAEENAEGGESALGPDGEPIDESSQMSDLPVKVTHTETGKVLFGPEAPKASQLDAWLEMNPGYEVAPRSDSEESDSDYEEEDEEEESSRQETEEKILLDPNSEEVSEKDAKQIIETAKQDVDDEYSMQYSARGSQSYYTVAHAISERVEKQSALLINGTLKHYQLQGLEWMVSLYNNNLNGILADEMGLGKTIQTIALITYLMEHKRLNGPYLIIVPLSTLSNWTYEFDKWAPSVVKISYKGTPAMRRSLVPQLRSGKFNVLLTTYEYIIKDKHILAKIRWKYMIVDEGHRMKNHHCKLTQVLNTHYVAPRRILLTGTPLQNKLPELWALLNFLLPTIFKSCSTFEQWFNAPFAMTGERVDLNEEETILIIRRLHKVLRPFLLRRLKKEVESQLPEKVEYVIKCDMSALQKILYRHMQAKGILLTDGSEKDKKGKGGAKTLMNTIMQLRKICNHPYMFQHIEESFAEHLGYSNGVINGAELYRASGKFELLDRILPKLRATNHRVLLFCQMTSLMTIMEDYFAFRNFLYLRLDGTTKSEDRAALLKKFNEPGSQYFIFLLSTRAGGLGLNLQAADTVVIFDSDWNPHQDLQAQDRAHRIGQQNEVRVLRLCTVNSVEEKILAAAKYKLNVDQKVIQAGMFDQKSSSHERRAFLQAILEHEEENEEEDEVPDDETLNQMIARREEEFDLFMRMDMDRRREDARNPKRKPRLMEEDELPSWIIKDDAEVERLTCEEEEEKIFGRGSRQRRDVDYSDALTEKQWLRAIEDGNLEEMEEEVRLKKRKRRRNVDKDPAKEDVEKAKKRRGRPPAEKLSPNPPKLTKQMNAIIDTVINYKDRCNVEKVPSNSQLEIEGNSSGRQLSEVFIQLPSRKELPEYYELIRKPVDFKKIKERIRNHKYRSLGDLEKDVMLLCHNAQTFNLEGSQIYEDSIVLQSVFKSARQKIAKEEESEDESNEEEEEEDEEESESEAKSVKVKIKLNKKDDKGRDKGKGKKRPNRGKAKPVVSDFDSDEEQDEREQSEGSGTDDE
# T2 sequence (P51532 whole entry): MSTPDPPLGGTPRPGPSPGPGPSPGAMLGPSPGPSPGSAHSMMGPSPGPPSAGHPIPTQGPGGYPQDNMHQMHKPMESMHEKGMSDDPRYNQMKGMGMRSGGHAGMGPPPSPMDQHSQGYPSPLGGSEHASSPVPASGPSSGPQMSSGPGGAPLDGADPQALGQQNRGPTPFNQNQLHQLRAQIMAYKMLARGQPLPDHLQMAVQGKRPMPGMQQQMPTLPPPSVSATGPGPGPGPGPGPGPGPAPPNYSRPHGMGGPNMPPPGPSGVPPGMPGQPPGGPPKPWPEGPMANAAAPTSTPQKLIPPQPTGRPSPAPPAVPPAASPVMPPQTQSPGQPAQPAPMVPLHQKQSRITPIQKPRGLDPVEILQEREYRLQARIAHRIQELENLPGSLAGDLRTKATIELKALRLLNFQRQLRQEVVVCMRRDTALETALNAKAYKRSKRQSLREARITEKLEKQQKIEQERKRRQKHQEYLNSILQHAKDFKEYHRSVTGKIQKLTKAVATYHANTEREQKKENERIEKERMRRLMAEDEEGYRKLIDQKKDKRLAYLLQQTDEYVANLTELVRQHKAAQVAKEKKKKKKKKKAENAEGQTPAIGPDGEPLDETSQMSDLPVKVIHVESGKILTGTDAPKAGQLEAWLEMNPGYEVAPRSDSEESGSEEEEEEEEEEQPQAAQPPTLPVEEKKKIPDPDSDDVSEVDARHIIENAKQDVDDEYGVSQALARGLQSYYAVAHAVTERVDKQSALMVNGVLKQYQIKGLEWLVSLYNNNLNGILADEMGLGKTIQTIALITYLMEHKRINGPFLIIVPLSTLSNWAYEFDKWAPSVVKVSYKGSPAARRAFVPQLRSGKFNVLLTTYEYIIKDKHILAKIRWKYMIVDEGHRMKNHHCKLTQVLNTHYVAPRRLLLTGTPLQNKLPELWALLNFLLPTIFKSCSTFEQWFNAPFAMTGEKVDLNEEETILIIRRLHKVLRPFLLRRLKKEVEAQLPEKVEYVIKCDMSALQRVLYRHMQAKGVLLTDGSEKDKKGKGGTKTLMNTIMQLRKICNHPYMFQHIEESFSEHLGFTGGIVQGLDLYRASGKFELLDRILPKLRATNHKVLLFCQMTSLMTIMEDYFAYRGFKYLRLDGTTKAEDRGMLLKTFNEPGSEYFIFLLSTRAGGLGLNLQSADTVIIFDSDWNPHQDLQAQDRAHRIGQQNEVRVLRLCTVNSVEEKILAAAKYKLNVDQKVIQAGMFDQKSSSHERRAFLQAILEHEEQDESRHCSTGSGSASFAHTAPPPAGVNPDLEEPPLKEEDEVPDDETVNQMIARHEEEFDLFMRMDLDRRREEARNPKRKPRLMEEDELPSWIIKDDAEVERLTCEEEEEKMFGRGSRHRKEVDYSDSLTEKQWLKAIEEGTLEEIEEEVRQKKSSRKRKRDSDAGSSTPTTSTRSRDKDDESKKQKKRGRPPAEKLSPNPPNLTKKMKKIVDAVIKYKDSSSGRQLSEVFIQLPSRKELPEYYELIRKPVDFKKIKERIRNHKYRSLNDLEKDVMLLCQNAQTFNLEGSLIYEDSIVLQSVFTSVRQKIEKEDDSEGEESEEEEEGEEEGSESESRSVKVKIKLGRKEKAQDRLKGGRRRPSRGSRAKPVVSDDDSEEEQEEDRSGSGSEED
Structure (SMILES),DC50 [1],DC50 [2],Dmax [2],BRM HiBit Degradation Maximum (%) [1]
"Nc1nnc(-c2ccccc2O)cc1OCCc1ccc(CNCCN2CCN(c3ccc4c(c3)C(=O)N(C3CCC(=O)NC3=O)C4=O)CC2)cc1 (stereo not drawn) [Compound 3, 5-(4-(2-((4-(2-((3-amino-6-(2-hydroxyphenyl)pyridazin-4-yl)oxy)ethyl)benzyl)amino)ethyl)piperazin-1-yl)-2-(2,6-dioxopiperidin-3-yl)isoindoline-1,3-dione]",> 1000 nM,> 1000 nM,< 50%,C (“C” indicates maximum degradation <50%)
"CN(CCCCCOc1ccc2c(c1)C(=O)N(C1CCC(=O)NC1=O)C2=O)Cc1ccc(CCOc2cc(-c3ccccc3O)nnc2N)cc1 (stereo not drawn) [Compound 148, 5-((5-((4-(2-((3-amino-6-(2-hydroxyphenyl)pyridazin-4-yl)oxy)ethyl)benzyl)(methyl)amino)pentyl)oxy)-2-(2,6-dioxopiperidin-3-yl)isoindoline-1,3-dioneformate]",> 1000 nM,> 1000 nM,< 50%,C (“C” indicates maximum degradation <50%)
"Nc1nnc(-c2ccccc2O)cc1OCCc1ccc(CNCCOc2cccc3c2C(=O)N(C2CCC(=O)NC2=O)C3=O)cc1 (stereo not drawn) [Compound 115, 4-[2-([[4-(2-[[3-amino-6-(2-hydroxyphenyl)pyridazin-4-yl]oxy]ethyl)phenyl]methyl]amino)ethoxy]-2-(2,6-dioxopiperidin-3-yl)isoindole-1,3-dione]",> 1000 nM,> 1000 nM,< 50%,C (“C” indicates maximum degradation <50%)
"Nc1nnc(-c2ccccc2O)cc1OCCc1ccc(C(=O)NCCCCCCCCC(=O)NCc2ccc(S(=O)(=O)Nc3cccc4c(Cl)c[nH]c34)cc2)cc1 [Compound 23, 9-[[4-(2-[[3-amino-6-(2-hydroxyphenyl)pyridazin-4-yl]oxy]ethyl)phenyl]formamido]-N-([4-[(3-chloro-1H-indol-7-yl)sulfamoyl]phenyl]methyl)nonanamide]",> 1000 nM,> 1000 nM,< 50%,C (“C” indicates maximum degradation <50%)
"Cc1ncsc1-c1ccc(CNC(=O)[C@@H]2C[C@@H](O)CN2C(=O)[C@@H](NC(=O)CCN2CCN(CCOc3cc(N4[C@@H]5CC[C@H]4CN(c4cc(-c6ccccc6O)nnc4N)C5)ccn3)CC2)C(C)(C)C)cc1 [Compound 232, (2S,4R)-1-((2S)-2-(3-(4-(2-((4-(3-(3-amino-6-(2-hydroxyphenyl)pyridazin-4-yl)-3,8-diazabicyclo[3.2.1]octan-8-yl)pyridin-2-yl)oxy)ethyl)piperazin-1-yl)propanamido)-3,3-dimethylbutanoyl)-4-hydroxy-N-(4-(4-methylthiazol-5-yl)benzyl)pyrrolidine-2-carboxamide]",> 100 nM,> 1000 nM,< 50%,A (“A” indicates maximum degradation ≥75%)
"CN(CCc1ccc(CNCCN2CCN(c3cccc4c3C(=O)N(C3CCC(=O)NC3=O)C4=O)CC2)cc1)c1cc(-c2ccccc2O)nnc1N (stereo not drawn) [Compound 160, 4-(4-(2-((4-(2-((3-amino-6-(2-hydroxyphenyl)pyridazin-4-yl)(methyl)amino)ethyl)benzyl)amino)ethyl)piperazin-1-yl)-2-(2,6-dioxopiperidin-3-yl)isoindoline-1,3-dione diformate]",> 1000 nM,> 1000 nM,> 50%,B (“B” indicates maximum degradation ≥50%)
"Cc1ncsc1-c1ccc(CNC(=O)[C@H]2C[C@H](O)CN2C(=O)[C@H](NC(=O)CCCCCNC(=O)CN2CCN(c3cc(-c4ccccc4O)nnc3N)CC2)C(C)(C)C)cc1 (stereo in doubt) [Compound 101, (2R,4S)-1-[(2R)-2-[6-(2-[4-[3-amino-6-(2-hydroxyphenyl)pyridazin-4-yl]piperazin-1-yl]acetamido)hexanamido]-3,3-dimethylbutanoyl]-4-hydroxy-N-[[4-(4-methyl-1,3-thiazol-5-yl)phenyl]methyl]pyrrolidine-2-carboxamide]",> 1000 nM,> 1000 nM,< 50%,B (“B” indicates maximum degradation ≥50%)
"Nc1nnc(-c2ccccc2O)cc1OCCc1ccc(CNCCCCCOc2cccc3c2C(=O)N(C2CCC(=O)NC2=O)C3=O)cc1 (stereo not drawn) [Compound 9, 4-[[5-([[4-(2-[[3-amino-6-(2-hydroxyphenyl)pyridazin-4-yl]oxy]ethyl)phenyl]methyl]amino)pentyl]oxy]-2-(2,6-dioxopiperidin-3-yl)isoindole-1,3-dione]",> 100 nM,> 1000 nM,–,A (“A” indicates maximum degradation ≥75%)
"Nc1nnc(-c2cc(F)ccc2O)cc1OCCc1ccc(CNCCCCCOc2cccc3c2C(=O)N(C2CCC(=O)NC2=O)C3=O)cc1 (stereo not drawn) [Compound 118, 4-[[5-([[4-(2-[[3-amino-6-(5-fluoro-2-hydroxyphenyl)pyridazin-4-yl]oxy]ethyl)phenyl]methyl]amino)pentyl]oxy]-2-(2,6-dioxopiperidin-3-yl)isoindole-1,3-dione;formic acid salt]",> 100 nM,> 1000 nM,< 50%,B (“B” indicates maximum degradation ≥50%)
"Cc1ncsc1-c1ccc(CNC(=O)[C@@H]2C[C@@H](O)CN2C(=O)[C@@H](NC(=O)CCCCN2CCN(CCC(=O)NCc3ccc(CCOc4cc(-c5ccccc5O)nnc4N)cc3)CC2)C(C)(C)C)cc1 [Compound 260, (2S,4R)-1-((S)-2-(5-(4-(3-((4-(2-((3-amino-6-(2-hydroxyphenyl)pyridazin-4-yl)oxy)ethyl)benzyl)amino)-3-oxopropyl)piperazin-1-yl)pentanamido)-3,3-dimethylbutanoyl)-4-hydroxy-N-(4-(4-methylthiazol-5-yl)benzyl)pyrrolidine-2-carboxamide]",> 1000 nM,> 1000 nM,< 50%,C (“C” indicates maximum degradation <50%)
"Cc1ncsc1-c1ccc(CNC(=O)[C@@H]2C[C@@H](O)CN2C(=O)[C@@H](NC(=O)CCN2CCC(OC3CCN(C(=O)c4ccc(CCOc5cc(-c6ccccc6O)nnc5N)cc4)CC3)CC2)C(C)(C)C)cc1 [Compound 202, (2S,4R)-1-((S)-2-(3-(4-((1-(4-(2-((3-amino-6-(2-hydroxyphenyl)pyridazin-4-yl)oxy)ethyl)benzoyl)piperidin-4-yl)oxy)piperidin-1-yl)propanamido)-3,3-dimethylbutanoyl)-4-hydroxy-N-(4-(4-methylthiazol-5-yl)benzyl)pyrrolidine-2-carboxamide]",> 1000 nM,> 1000 nM,< 50%,B (“B” indicates maximum degradation ≥50%)

# More lines, main results first:
DC50 [1],DC50 [2],Dmax [2],Structure (SMILES),BRM HiBit Degradation Maximum (%) [1]
> 100 nM,> 1000 nM,< 50%,"Cc1ncsc1-c1ccc(CNC(=O)[C@@H]2C[C@@H](O)CN2C(=O)[C@@H](NC(=O)CCCCCCCCCNCc2ccc(CCOc3cc(-c4ccccc4O)nnc3N)cc2)C(C)(C)C)cc1 [Compound 26, (2S,4R)-1-((S)-2-(10-((4-(2-((3-amino-6-(2-hydroxyphenyl)pyridazin-4-yl)oxy)ethyl)benzyl)amino)decanamido)-3,3-dimethylbutanoyl)-4-hydroxy-N-(4-(4-methylthiazol-5-yl)benzyl)pyrrolidine-2-carboxamide]",A (“A” indicates maximum degradation ≥75%)
> 10 nM,> 1000 nM,> 50%,"Nc1nnc(-c2ccccc2O)cc1OCCc1ccc(CNCCCCCNc2cccc3c2C(=O)N(C2CCC(=O)NC2=O)C3=O)cc1 (stereo not drawn) [Compound 112, 4-[[5-([[4-(2-[[3-amino-6-(2-hydroxyphenyl)pyridazin-4-yl]oxy]ethyl)phenyl]methyl]amino)pentyl]amino]-2-(2,6-dioxopiperidin-3-yl)isoindole-1,3-dione]",B (“B” indicates maximum degradation ≥50%)
> 100 nM,> 1000 nM,< 50%,"Nc1nnc(-c2ccccc2O)cc1OCCc1ccc(C(=O)NCCCCCOc2cccc3c2C(=O)N(C2CCC(=O)NC2=O)C3=O)cc1 (stereo not drawn) [Compound 21, 4-(2-[[3-amino-6-(2-hydroxyphenyl)pyridazin-4-yl]oxy]ethyl)-N-(5-[[2-(2,6-dioxopiperidin-3-yl)-1,3-dioxoisoindol-4-yl]oxy]pentyl)benzamide]",B (“B” indicates maximum degradation ≥50%)
> 100 nM,> 1000 nM,> 50%,"Cc1ncsc1-c1ccc([C@H](C)NC(=O)[C@@H]2C[C@@H](O)CN2C(=O)[C@@H](NC(=O)CCCCCCCCCNC(=O)c2ccc(CCOc3cc(-c4ccccc4O)nnc3N)cc2)C(C)(C)C)cc1 [Compound 171, (2S,4R)-1-((S)-2-(10-(4-(2-((3-amino-6-(2-hydroxyphenyl)pyridazin-4-yl)oxy)ethyl)benzamido)decanamido)-3,3-dimethylbutanoyl)-4-hydroxy-N-((S)-1-(4-(4-methylthiazol-5-yl)phenyl)ethyl)pyrrolidine-2-carboxamide]",A (“A” indicates maximum degradation ≥75%)
> 10 nM,> 1000 nM,< 50%,"Nc1nnc(-c2ccccc2O)cc1OCCc1ccc(CNCCCC2CN(c3ccc4c(c3)C(=O)N(C3CCC(=O)NC3=O)C4=O)C2)cc1 (stereo not drawn) [Compound 123, 5-[3-[3-([[4-(2-[[3-amino-6-(2-hydroxyphenyl)pyridazin-4-yl]oxy]ethyl)phenyl]methyl]amino)propyl]azetidin-1-yl]-2-(2,6-dioxopiperidin-3-yl)isoindole-1,3-dione]",B (“B” indicates maximum degradation ≥50%)
